Assay results from patent US20170320848A1, “COMPOUNDS FOR USE IN ANTHELMINTHIC TREATMENT” (Bayer Animal Health GMBH, priority 2014, published 2017).

How the values were obtained:
[1] = Measurement of LogP values by HPLC on reversed phase columns (EEC directive 79/831 Annex V.A8); format: physicochemical; details: acidic range, 0.1% formic acid in water and acetonitrile as eluent; for chromatographic logP: reversed phase HPLC columns, read-out: logP (HCOOH)[a]
Meloidogyne incognita = Meloidogyne incognita assay (MELGIN), gall formation on salad seedlings; format: in vivo; details: application rate 20 ppm, after 14 days
Protocol: Meloidogyne Incognita—Assay (MELGIN)
Solvent: 125.0 parts by weight of acetone
To produce a suitable preparation, 1 part by weight of active compound is mixed with the stated amount of solvent, and the concentrate is diluted with water to the desired concentration.
Vessels are filled with sand, a solution of the active ingredient, a suspension containing eggs and larvae of the southern root-knot nematode (Meloidogyne incognita) and salad seeds. The salad seeds germinate and the seedlings grow. Galls develop in the roots.
After 14 days the nematicidal activity is determined on the basis of the percentage of gall formation. 100% means no galls were found and 0% means the number of galls found on the roots of the treated plants was equal to that in untreated control plants.

Cooperia curticei = Cooperia curticei assay (COOPCU), larval mortality; format: cell-based; details: Cooperia curticei, 120 h, after 5 days, read-out: activity (percentage of larval mortality); for mortality at 20 ppm: application rate 20 ppm
Protocol: Cooperia Curticei—Assay (COOPCU)
(§1) Solvent: dimethyl sulfoxide
(§2) To produce a suitable preparation, 10 mg of active compound are dissolved in 0.5 ml solvent, and the concentrate is diluted with “Ringer's solution” to the desired concentration.
Approximately 40 nematode larvae (Cooperia curticei) are transferred into a test tube containing the compound solution.
After 5 days percentage of larval mortality is recorded. 100% efficacy means all larvae are killed; 0% efficacy means no larvae are killed.

Haemonchus contortus = Haemonchus contortus assay (HAEMCO), larval mortality; format: cell-based; details: after 5 days
Protocol: Haemonchus Contortus—Assay (HAEMCO)
as §1, §2
Approximately 40 larvae of the red stomach worm (Haemonchus contortus) are transferred into a test tube containing compound solution.
After 5 days percentage of larval mortality are recorded. 100% efficacy means all larvae are killed, 0% efficacy means no larvae are killed.

[2] = Haemonchus contortus, 120 h, application rate 20 ppm, read-out: activity (percentage of larval mortality)

For `O=C(NCC(F)(F)c1ccc(-c2ccc(F)cc2)cc1Cl)c1ncccc1C(F)(F)F` [Example 62], the “logP (HCOOH)[a]” value [1] was 4.05 and the “nematicidal activity (percentage of gall formation)” value (Meloidogyne incognita) was 100%.
In the case of `Cc1cc(-c2ccc(C#N)cc2)ccc1C(F)(F)CNC(=O)c1ccccc1C(F)(F)F` [Example 49], the “logP (HCOOH)[a]” value [1] is reported as 3.7 and the “nematicidal activity (percentage of gall formation)” value (Meloidogyne incognita) is reported as 100%.
For `O=C(NCC(F)(F)c1ccc(-c2ccc(F)cc2)cc1C(F)(F)F)c1nccnc1C(F)(F)F` [Example 52], the “nematicidal activity (percentage of gall formation)” value (Meloidogyne incognita) was 100%.
In the case of `O=C(NCC(F)(F)c1ccc(-c2ccc(OC(F)(F)F)cc2)cc1C(F)(F)F)c1ccccc1C(F)(F)F` [Example 15], the mortality at 20 ppm (Cooperia curticei) is reported as 100% and the mortality at 20 ppm (Haemonchus contortus; [2]) is reported as 90%.
In the case of `O=C(NCC(F)(F)c1ccc(-c2cc(F)c(F)c(F)c2)cc1Cl)c1c(F)cccc1F` [Example 117], the “logP (HCOOH)[a]” value [1] is reported as 4.05 and the “nematicidal activity (percentage of gall formation)” value (Meloidogyne incognita) is reported as 100%.
In the case of `O=C(NCC(F)(F)c1ccc(-c2ccc(F)cc2)cc1Cl)c1cccnc1Cl` [Example 63], the “logP (HCOOH)[a]” value [1] is reported as 3.46 and the “nematicidal activity (percentage of gall formation)” value (Meloidogyne incognita) is reported as 100%.
For `COc1cc(-c2ccc(C(F)(F)CNC(=O)c3ccccc3C(F)(F)F)c(Cl)c2)ccc1F` [Example 34], the mortality at 20 ppm (Cooperia curticei) was 100%, the chromatographic logP [1] was 4.09 and the mortality at 20 ppm (Haemonchus contortus; [2]) was 100%.
With `Cc1cc(-c2ccc(Cl)c(Cl)c2)ccc1C(F)(F)CNC(=O)c1ccccc1C(F)(F)F` [Example 122] the “logP (HCOOH)[a]” value [1] was 4.98 and the “nematicidal activity (percentage of gall formation)” value (Meloidogyne incognita) was 100%.
With `O=C(NCC(F)(F)c1c(F)cc(-c2cc(F)c(F)c(F)c2)cc1F)c1ccccc1C(F)(F)F` [Example 108] the “logP (HCOOH)[a]” value [1] was 4.2 and the “nematicidal activity (percentage of gall formation)” value (Meloidogyne incognita) was 90%.
In the case of `Cc1cc(-c2ccc(F)c(F)c2)ccc1C(F)(F)CNC(=O)c1ccccc1C(F)(F)F` [Example 120], the “logP (HCOOH)[a]” value [1] is reported as 4.2 and the “nematicidal activity (percentage of gall formation)” value (Meloidogyne incognita) is reported as 100%.
For `O=C(NCC(F)(F)c1ccc(-c2ccc(Cl)cc2)cc1F)c1cccnc1C(F)(F)F` [Example 20], the mortality at 20 ppm (Cooperia curticei) was 100% and the mortality at 20 ppm (Haemonchus contortus; [2]) was 90%.
Compound `O=C(NCC(F)(F)c1ccc(-c2ccc(OC(F)(F)F)cc2)cc1F)c1ccccc1C(F)(F)F` [Example 14] has a mortality at 20 ppm (Cooperia curticei) of 100% and a mortality at 20 ppm (Haemonchus contortus; [2]) of 90%.
In the case of `O=C(NCC(F)(F)c1ccc(-c2cccc(OC(F)F)c2)cc1Cl)c1ccccc1C(F)(F)F` [Example 65], the “logP (HCOOH)[a]” value [1] is reported as 4.08 and the “nematicidal activity (percentage of gall formation)” value (Meloidogyne incognita) is reported as 100%.
In the case of `Cc1cc(-c2cccc(Cl)c2)ccc1C(F)(F)CNC(=O)c1ccccc1C(F)(F)F` [Example 123], the “logP (HCOOH)[a]” value [1] is reported as 4.56 and the “nematicidal activity (percentage of gall formation)” value (Meloidogyne incognita) is reported as 100%.
In the case of `O=C(NCC(F)(F)c1ccc(-c2ccc(F)cc2)cc1Cl)c1cccnc1I` [Example 64], the “logP (HCOOH)[a]” value [1] is reported as 3.56 and the “nematicidal activity (percentage of gall formation)” value (Meloidogyne incognita) is reported as 100%.
Work on `O=C(NCC(F)(F)c1ccc(-c2ccc(Cl)cc2)cc1C(F)(F)F)c1cccnc1C(F)(F)F` [Example 18] yielded a mortality at 20 ppm (Cooperia curticei) of 100% and a mortality at 20 ppm (Haemonchus contortus; [2]) of 100%.
For `O=C(NCC(F)(F)c1ccc(-c2ccc(Cl)c(Cl)c2)cc1Cl)c1ccccc1C(F)(F)F` [Example 70], the “logP (HCOOH)[a]” value [1] was 4.93 and the “nematicidal activity (percentage of gall formation)” value (Meloidogyne incognita) was 90%.
For `O=C(NCC(F)(F)c1ccc(-c2ccc(Cl)cc2)cc1Cl)c1cccnc1C(F)(F)F` [Example 4], the mortality at 4 ppm (Cooperia curticei; application rate 4 ppm) was 100%, the chromatographic logP [1] was 4.14 and the mortality at 4 ppm (Haemonchus contortus; Haemonchus contortus, 120 h, application rate 4 ppm, read-out: activity (percentage of larval mortality)) was 90%.
In the case of `O=C(NCC(F)(F)c1ccc(-c2ccc(Cl)cc2)cc1C(F)(F)F)c1nccnc1C(F)(F)F` [Example 53], the “nematicidal activity (percentage of gall formation)” value (Meloidogyne incognita) is reported as 100%.
With `Cc1cc(-c2cc(F)c(Cl)c(F)c2)ccc1C(F)(F)CNC(=O)c1ccccc1C(F)(F)F` [Example 126] the “logP (HCOOH)[a]” value [1] was 4.77 and the “nematicidal activity (percentage of gall formation)” value (Meloidogyne incognita) was 90%.
`O=C(NCC(F)(F)c1c(F)cc(-c2ccc(F)cc2)cc1F)c1ccccc1C(F)(F)F` [Example 16] showed a mortality at 20 ppm (Cooperia curticei) of 100%, a chromatographic logP [1] of 3.95 and a mortality at 20 ppm (Haemonchus contortus; [2]) of 100%.
For `O=C(NCC(F)(F)c1ccc(-c2cc(F)c(F)c(F)c2)cc1Cl)c1ccccc1Cl` [Example 115], the “logP (HCOOH)[a]” value [1] was 4.23 and the “nematicidal activity (percentage of gall formation)” value (Meloidogyne incognita) was 100%.
For `O=C(NCC(F)(F)c1ccc(-c2ccc(OC(F)F)cc2)cc1Cl)c1ccccc1C(F)(F)F` [Example 68], the “logP (HCOOH)[a]” value [1] was 4.03 and the “nematicidal activity (percentage of gall formation)” value (Meloidogyne incognita) was 100%.
In the case of `O=C(NCC(F)(F)c1ccc(-c2ccc(F)cc2)cc1Cl)c1nccnc1C(F)(F)F` [Example 61], the “logP (HCOOH)[a]” value [1] is reported as 3.85 and the “nematicidal activity (percentage of gall formation)” value (Meloidogyne incognita) is reported as 100%.
With `N#Cc1ccc(-c2ccc(C(F)(F)CNC(=O)c3ccccc3C(F)(F)F)c(Cl)c2)cc1C(F)(F)F` [Example 97] the “logP (HCOOH)[a]” value [1] was 4.12 and the “activity (percentage of larval mortality)” value (Haemonchus contortus; application rate 20 ppm) was 80%.
With `O=C(NCC(F)(F)c1c(F)cc(-c2ccc(SC(F)(F)F)cc2)cc1F)c1ccccc1C(F)(F)F` [Example 47] the “logP (HCOOH)[a]” value [1] was 4.82 and the “nematicidal activity (percentage of gall formation)” value (Meloidogyne incognita) was 90%.
For `O=C(NCC(F)(F)c1ccc(-c2cccc(Cl)c2)cc1Cl)c1ccccc1C(F)(F)F` [Example 69], the “logP (HCOOH)[a]” value [1] was 4.6 and the “nematicidal activity (percentage of gall formation)” value (Meloidogyne incognita) was 100%.
In the case of `N#Cc1cc(-c2ccc(C(F)(F)CNC(=O)c3ccccc3C(F)(F)F)c(Cl)c2)ccc1Cl` [Example 95], the “logP (HCOOH)[a]” value [1] is reported as 4.07 and the “nematicidal activity (percentage of gall formation)” value (Meloidogyne incognita) is reported as 100%.
With `O=C(NCC(F)(F)c1ccc(-c2cc(F)cc(F)c2)cc1F)c1ccccc1C(F)(F)F` [Example 101] the “nematicidal activity (percentage of gall formation)” value (Meloidogyne incognita) was 100%.
For `Cc1cc(-c2ccc(SC(F)(F)F)cc2)ccc1C(F)(F)CNC(=O)c1ccccc1C(F)(F)F` [Example 50], the “logP (HCOOH)[a]” value [1] was 5.08 and the “nematicidal activity (percentage of gall formation)” value (Meloidogyne incognita) was 100%.
In the case of `Cc1cc(-c2cccc(F)c2F)ccc1C(F)(F)CNC(=O)c1ccccc1C(F)(F)F` [Example 127], the “logP (HCOOH)[a]” value [1] is reported as 4.1 and the “nematicidal activity (percentage of gall formation)” value (Meloidogyne incognita) is reported as 90%.
For `O=C(NCC(F)(F)c1ccc(-c2ccc(F)cc2)cc1F)c1cccnc1C(F)(F)F` [Example 19], the mortality at 20 ppm (Cooperia curticei) was 100% and the mortality at 20 ppm (Haemonchus contortus; [2]) was 100%.
For `O=C(NCC(F)(F)c1ccc(-c2ccc(F)c(Cl)c2)cc1Cl)c1ccccc1C(F)(F)F` [Example 94], the “logP (HCOOH)[a]” value [1] was 4.57 and the “nematicidal activity (percentage of gall formation)” value (Meloidogyne incognita) was 100%.
In the case of `Cc1cc(-c2ccc(F)cc2F)ccc1C(F)(F)CNC(=O)c1ccccc1C(F)(F)F` [Example 119], the “logP (HCOOH)[a]” value [1] is reported as 4.15 and the “nematicidal activity (percentage of gall formation)” value (Meloidogyne incognita) is reported as 100%.
For `O=C(NCC(F)(F)c1ccc(-c2c(F)cccc2F)cc1Cl)c1ccccc1C(F)(F)F` [Example 31], the mortality at 20 ppm (Cooperia curticei) was 100%, the chromatographic logP [1] was 3.99 and the mortality at 20 ppm (Haemonchus contortus; [2]) was 80%.
In the case of `Cc1cc(-c2ccc(Cl)c(F)c2)ccc1C(F)(F)CNC(=O)c1ccccc1C(F)(F)F` [Example 125], the “logP (HCOOH)[a]” value [1] is reported as 4.61 and the “nematicidal activity (percentage of gall formation)” value (Meloidogyne incognita) is reported as 100%.
For `O=C(NCC(F)(F)c1ccc(-c2cc(F)c(F)c(F)c2)cc1Cl)c1ncccc1C(F)(F)F` [Example 112], the “logP (HCOOH)[a]” value [1] was 4.23 and the “nematicidal activity (percentage of gall formation)” value (Meloidogyne incognita) was 100%.
For `Cc1cc(-c2cc(F)c(F)c(F)c2)ccc1C(F)(F)CNC(=O)c1ccccc1C(F)(F)F` [Example 109], the “logP (HCOOH)[a]” value [1] was 4.48 and the “nematicidal activity (percentage of gall formation)” value (Meloidogyne incognita) was 100%.
For `Cc1cc(-c2ccc(F)c(Cl)c2)ccc1C(F)(F)CNC(=O)c1ccccc1C(F)(F)F` [Example 124], the “logP (HCOOH)[a]” value [1] was 4.56 and the “nematicidal activity (percentage of gall formation)” value (Meloidogyne incognita) was 100%.
With `O=C(NCC(F)(F)c1ccc(-c2cccc(C(F)F)c2)cc1Cl)c1ccccc1C(F)(F)F` [Example 43] the “logP (HCOOH)[a]” value [1] was 4.03 and the “nematicidal activity (percentage of gall formation)” value (Meloidogyne incognita) was 100%.
In the case of `N#Cc1ccc(-c2ccc(C(F)(F)CNC(=O)c3ccccc3C(F)(F)F)c(Cl)c2)cc1Cl` [Example 105], the “logP (HCOOH)[a]” value [1] is reported as 4.02 and the “nematicidal activity (percentage of gall formation)” value (Meloidogyne incognita) is reported as 100%.
In the case of `O=C(NCC(F)(F)c1ccc(-c2ccc(F)cc2)cc1Cl)c1c(F)cccc1F` [Example 60], the “logP (HCOOH)[a]” value [1] is reported as 3.85 and the “nematicidal activity (percentage of gall formation)” value (Meloidogyne incognita) is reported as 100%.
